From ChEMBL document CHEMBL1201862, “PubChem BioAssay data set” (2004)
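Step 1: Grow cells in 96-well plates. Step 2: Expose to compound for 48 hours at 5 concentrations. Step 3: Interpolate endpoints linearly; if unreached, use highest concentration. The concentration for 50% growth inhibition is given as GI50.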 Active and inactive are the calls of the source. Cut-off read from the data, not from the text of the source: active = GI50 up to about 1.1 µM and inactive = higher.

Experiments:
Assay in all cases: NCI tumour cell line growth inhibition, 48 h
EKVX = system: EKVX
BT-549 = system: BT-549
NCI-H226 = system: NCI-H226
TK-10 = system: TK-10
RXF 393 = system: RXF 393
HOP-62 = system: HOP-62
NCI-H460 = system: NCI-H460
COLO 205 = system: COLO 205
HT-29 = system: HT-29
OVCAR-3 = system: OVCAR-3
SK-MEL-2 = system: SK-MEL-2
IGROV-1 = system: IGROV-1
ACHN = system: ACHN
UACC-62 = system: UACC-62
CAKI-1 = system: CAKI-1
DU-145 = system: DU-145
NCI/ADR-RES = system: NCI/ADR-RES
Hs-578T = system: Hs-578T
RPMI-8226 = system: RPMI-8226
MCF7 = system: MCF7
KM12 = system: KM12
SNB-19 = system: SNB-19
HCC 2998 = system: HCC 2998
SK-MEL-28 = system: SK-MEL-28
HCT-116 = system: HCT-116
NCI-H23 = system: NCI-H23
HL-60 = system: HL-60
OVCAR-4 = system: OVCAR-4
LOX IMVI = system: LOX IMVI
MOLT-4 = system: MOLT-4
SR = system: SR
A549 = system: A549
NCI-H522 = system: NCI-H522
MDA-MB-435 = system: MDA-MB-435
UO-31 = system: UO-31
SF-295 = system: SF-295
SNB-75 = system: SNB-75
OVCAR-8 = system: OVCAR-8
MDA-N = system: MDA-N
PC-3 = system: PC-3
CCRF-CEM = system: CCRF-CEM
SK-MEL-5 = system: SK-MEL-5
HCT-15 = system: HCT-15
SK-OV-3 = system: SK-OV-3
Malme-3M = system: Malme-3M
SF-268 = system: SF-268
K562 = system: K562
T47D = system: T47D
OVCAR-5 = system: OVCAR-5
U-251 = system: U-251
SN12C = system: SN12C
UACC-257 = system: UACC-257
SF-539 = system: SF-539
A498 = system: A498
MDA-MB-231 = system: MDA-MB-231
786-0 = system: 786-0
M14 = system: M14
HOP-92 = system: HOP-92
SW-620 = system: SW-620

CO/C=C(/C(=O)OC)c1ccccc1COc1cccc(C(F)(F)F)c1
GI50 (EKVX): 3.56 µM (inactive) | GI50 (BT-549): 6.28 µM (inactive) | GI50 (NCI-H226): 1.89 µM (inactive) | GI50 (TK-10): 3.18 µM (inactive) | GI50 (RXF 393): 11.6 µM (inactive) | GI50 (HOP-62): 12.6 µM (inactive) | GI50 (NCI-H460): 1.22 µM (inactive) | GI50 (COLO 205): 6.61 µM (inactive) | GI50 (HT-29): 4.14 µM (inactive) | GI50 (OVCAR-3): 10.2 µM (inactive) | GI50 (SK-MEL-2): 11.6 µM (inactive) | GI50 (IGROV-1): 4.57 µM (inactive) | GI50 (ACHN): 3.63 µM (inactive) | GI50 (UACC-62): 0.638 µM (active) | GI50 (CAKI-1): 4.84 µM (inactive) | GI50 (DU-145): 11.6 µM (inactive) | GI50 (NCI/ADR-RES): 5.31 µM (inactive) | GI50 (Hs-578T): 10.3 µM (inactive) | GI50 (RPMI-8226): 0.408 µM (active) | GI50 (MCF7): 5.35 µM (inactive) | GI50 (KM12): 11.3 µM (inactive) | GI50 (SNB-19): 22.1 µM (inactive) | GI50 (HCC 2998): 10.8 µM (inactive) | GI50 (SK-MEL-28): 22.6 µM (inactive) | GI50 (HCT-116): 2.4 µM (inactive) | GI50 (NCI-H23): 2.26 µM (inactive) | GI50 (HL-60): < 0.01 µM (active) | GI50 (OVCAR-4): 8 µM (inactive) | GI50 (LOX IMVI): 1.16 µM (inactive) | GI50 (MOLT-4): 1.01 µM (active) | GI50 (SR): 0.646 µM (active) | GI50 (A549): 2.91 µM (inactive) | GI50 (NCI-H522): 0.526 µM (active) | GI50 (MDA-MB-435): 1.01 µM (active) | GI50 (UO-31): 4.17 µM (inactive) | GI50 (SF-295): 3.3 µM (inactive) | GI50 (SNB-75): 7.01 µM (inactive) | GI50 (OVCAR-8): 8.69 µM (inactive) | GI50 (MDA-N): 2.54 µM (inactive) | GI50 (PC-3): 7.43 µM (inactive) | GI50 (CCRF-CEM): 0.489 µM (active) | GI50 (SK-MEL-5): 0.473 µM (active) | GI50 (HCT-15): 4.19 µM | GI50 (SK-OV-3): 27.9 µM (inactive) | GI50 (Malme-3M): 1.41 µM (inactive) | GI50 (SF-268): 8.77 µM (inactive) | GI50 (K562): 3.76 µM (inactive) | GI50 (T47D): 15 µM (inactive) | GI50 (OVCAR-5): > 100 µM (inactive) | GI50 (U-251): 3.22 µM (inactive) | GI50 (SN12C): 8.28 µM (inactive) | GI50 (UACC-257): 0.676 µM (active) | GI50 (SF-539): 4.97 µM (inactive) | GI50 (A498): 4.85 µM (inactive) | GI50 (MDA-MB-231): 7.89 µM (inactive) | GI50 (786-0): 8.09 µM (inactive) | GI50 (M14): 68.7 µM (inactive) | GI50 (HOP-92): 5.65 µM (inactive)

COP(=O)(OC)/C(=C/c1cn(C(c2ccccc2)(c2ccccc2)c2ccccc2)cn1)NC=O
GI50 (EKVX): 22 µM (inactive) | GI50 (BT-549): 16 µM (inactive) | GI50 (NCI-H226): 29.5 µM (inactive) | GI50 (TK-10): 22.5 µM (inactive) | GI50 (RXF 393): 16.3 µM (inactive) | GI50 (HOP-62): 17.7 µM (inactive) | GI50 (NCI-H460): 16.4 µM (inactive) | GI50 (COLO 205): 15.4 µM (inactive) | GI50 (HT-29): 16.4 µM (inactive) | GI50 (SW-620): 26 µM (inactive) | GI50 (OVCAR-3): 14.9 µM (inactive) | GI50 (SK-MEL-2): 16.9 µM (inactive) | GI50 (IGROV-1): 20.5 µM (inactive) | GI50 (ACHN): 12.1 µM (inactive) | GI50 (UACC-62): 18.7 µM (inactive) | GI50 (CAKI-1): 20.4 µM (inactive) | GI50 (DU-145): 21.6 µM (inactive) | GI50 (NCI/ADR-RES): 17.3 µM (inactive) | GI50 (Hs-578T): 16 µM (inactive) | GI50 (RPMI-8226): 32 µM (inactive) | GI50 (MCF7): 16 µM (inactive) | GI50 (KM12): 32.9 µM (inactive) | GI50 (SNB-19): 35 µM (inactive) | GI50 (HCC 2998): 16.7 µM (inactive) | GI50 (SK-MEL-28): 33.4 µM (inactive) | GI50 (HCT-116): 13.8 µM (inactive) | GI50 (NCI-H23): 19.5 µM (inactive) | GI50 (HL-60): > 100 µM (inactive) | GI50 (OVCAR-4): 18.2 µM (inactive) | GI50 (LOX IMVI): 15.9 µM (inactive) | GI50 (MOLT-4): > 100 µM (inactive) | GI50 (SR): > 100 µM (inactive) | GI50 (A549): 23.4 µM (inactive) | GI50 (NCI-H522): 15.5 µM (inactive) | GI50 (MDA-MB-435): 18.1 µM (inactive) | GI50 (UO-31): 12.9 µM (inactive) | GI50 (SF-295): 13.8 µM (inactive) | GI50 (SNB-75): 5.92 µM (inactive) | GI50 (OVCAR-8): 21.7 µM (inactive) | GI50 (MDA-N): 19.2 µM (inactive) | GI50 (PC-3): 17 µM (inactive) | GI50 (CCRF-CEM): 24.8 µM (inactive) | GI50 (SK-MEL-5): 13.7 µM (inactive) | GI50 (HCT-15): 25.6 µM | GI50 (SK-OV-3): 34 µM (inactive) | GI50 (Malme-3M): 18.6 µM (inactive) | GI50 (SF-268): 14.5 µM (inactive) | GI50 (K562): 84.9 µM (inactive) | GI50 (T47D): 26.4 µM (inactive) | GI50 (OVCAR-5): 20.6 µM (inactive) | GI50 (U-251): 16.4 µM (inactive) | GI50 (SN12C): 19.2 µM (inactive) | GI50 (SF-539): 14.4 µM (inactive) | GI50 (A498): 16.6 µM (inactive) | GI50 (MDA-MB-231): 16.2 µM (inactive) | GI50 (786-0): 29.4 µM (inactive) | GI50 (M14): 15.1 µM (inactive) | GI50 (HOP-92): 18 µM (inactive)

COc1ccc(NC(=O)CC(=O)n2nc(C)c(/N=N/c3cccc(C)c3)c2C)cc1
GI50 (EKVX): 31.4 µM (inactive) | GI50 (BT-549): > 100 µM (inactive) | GI50 (NCI-H226): > 100 µM (inactive) | GI50 (TK-10): > 100 µM (inactive) | GI50 (RXF 393): > 100 µM (inactive) | GI50 (HOP-62): 37.6 µM (inactive) | GI50 (NCI-H460): > 100 µM (inactive) | GI50 (COLO 205): > 100 µM (inactive) | GI50 (HT-29): > 100 µM (inactive) | GI50 (SW-620): > 100 µM (inactive) | GI50 (OVCAR-3): > 100 µM (inactive) | GI50 (SK-MEL-2): > 100 µM (inactive) | GI50 (ACHN): > 100 µM (inactive) | GI50 (UACC-62): > 100 µM (inactive) | GI50 (CAKI-1): > 100 µM (inactive) | GI50 (DU-145): > 100 µM (inactive) | GI50 (NCI/ADR-RES): > 100 µM (inactive) | GI50 (Hs-578T): > 100 µM (inactive) | GI50 (RPMI-8226): 91.8 µM (inactive) | GI50 (MCF7): > 100 µM (inactive) | GI50 (KM12): > 100 µM (inactive) | GI50 (SNB-19): > 100 µM (inactive) | GI50 (HCC 2998): > 100 µM (inactive) | GI50 (SK-MEL-28): > 100 µM (inactive) | GI50 (HCT-116): > 100 µM (inactive) | GI50 (NCI-H23): > 100 µM (inactive) | GI50 (HL-60): > 100 µM (inactive) | GI50 (OVCAR-4): > 100 µM (inactive) | GI50 (LOX IMVI): > 100 µM (inactive) | GI50 (MOLT-4): > 100 µM (inactive) | GI50 (SR): 91.6 µM (inactive) | GI50 (A549): > 100 µM (inactive) | GI50 (NCI-H522): > 100 µM (inactive) | GI50 (MDA-MB-435): > 100 µM (inactive) | GI50 (UO-31): > 100 µM (inactive) | GI50 (SF-295): > 100 µM (inactive) | GI50 (SNB-75): 40.8 µM (inactive) | GI50 (OVCAR-8): > 100 µM (inactive) | GI50 (MDA-N): > 100 µM (inactive) | GI50 (PC-3): > 100 µM (inactive) | GI50 (CCRF-CEM): > 100 µM (inactive) | GI50 (SK-MEL-5): > 100 µM (inactive) | GI50 (HCT-15): > 100 µM | GI50 (SK-OV-3): 18.6 µM (inactive) | GI50 (Malme-3M): > 100 µM (inactive) | GI50 (SF-268): > 100 µM (inactive) | GI50 (T47D): > 100 µM (inactive) | GI50 (OVCAR-5): > 100 µM (inactive) | GI50 (U-251): 54.1 µM (inactive) | GI50 (SN12C): > 100 µM (inactive) | GI50 (UACC-257): > 10 µM (inactive) | GI50 (SF-539): > 100 µM (inactive) | GI50 (A498): 56.6 µM (inactive) | GI50 (MDA-MB-231): > 100 µM (inactive) | GI50 (786-0): > 100 µM (inactive) | GI50 (M14): > 100 µM (inactive) | GI50 (HOP-92): 69.8 µM (inactive)
